The source of these data is PubChem BioAssay AID330 (DTP/NCI, 2004).

The structures appear in SMILES notation. Values joined by “and” are separate entries in the source; they are usually repeats but may differ in a detail not shown here. Identical values can stand only once. Toxic doses and inconclusive results are not listed.

In this experiment the test system is P388 leukemia ip, CD2F1 mice, survival T/C. Description: NCI In Vivo Anticancer Drug Screen. Data for tumor model P388 Leukemia (intraperitoneal) in CD2F1 (CDF1) mice. The note with it: endpoint: median survival time, higher = longer survival. The method, boiled down: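 Mice carrying the transplanted tumor received test compound or vehicle. Survival was recorded in each group, and the value is the treated-group measurement divided by that of the vehicle-treated control group.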

Setting [1] is: dose: 12.5 mg/kg/injection, schedule: Q01DX009 (ip), vehicle: Klucel (hydroxypropylcellulose) (HPC).
[2] abbreviates: dose: 25.0 mg/kg/injection, schedule: Q01DX009 (ip), vehicle: Klucel (hydroxypropylcellulose) (HPC).
Where [3] appears, read: dose: 50.0 mg/kg/injection, schedule: Q01DX009 (ip), vehicle: saline with Tween-80.
The mark [4] stands for this setting: dose: 100.0 mg/kg/injection, schedule: Q01DX009 (ip), vehicle: saline with Tween-80.

With `CCCCC(=O)N(c1ccc(Nc2c3ccccc3nc3cc([N+](=O)[O-])ccc23)cc1)S(C)(=O)=O`, the T/C reads like this: (dose: 0.07 mg/kg/injection, schedule: Q01DX009 (ip), vehicle: saline with Tween-80) 107 % of control; (dose: 0.1 mg/kg/injection, schedule: Q01DX009 (ip), vehicle: saline with Tween-80) 107 % of control; (dose: 0.15 mg/kg/injection, schedule: Q01DX009 (ip), vehicle: saline with Tween-80) 105 % of control; (dose: 0.23 mg/kg/injection, schedule: Q01DX009 (ip), vehicle: saline with Tween-80) 123 % of control; (dose: 0.44 mg/kg/injection, schedule: Q04DX003 (ip), vehicle: saline with Tween-80) 112 % of control; (dose: 0.66 mg/kg/injection, schedule: Q04DX003 (ip), vehicle: saline with Tween-80) 113 % of control. In addition, the T/C was 119 % of control (dose: 1.0 mg/kg/injection, schedule: Q04DX003 (ip), vehicle: saline with Tween-80); 188 % of control (dose: 2.5 mg/kg/injection, schedule: Q01DX009 (ip), vehicle: saline with Tween-80); 154 % of control (dose: 4.4 mg/kg/injection, schedule: Q04DX003 (ip), vehicle: saline with Tween-80); 227 % of control (dose: 5.0 mg/kg/injection, schedule: Q01DX009 (ip), vehicle: saline with Tween-80); 159 % of control (dose: 6.6 mg/kg/injection, schedule: Q04DX003 (ip), vehicle: saline with Tween-80); 227 % of control (dose: 9.38 mg/kg/injection, schedule: Q01DX009 (ip), vehicle: saline with Tween-80). The T/C (dose: 10.0 mg/kg/injection, schedule: Q01DX009 (ip), vehicle: saline with Tween-80) was 254 % of control; the T/C (dose: 10.0 mg/kg/injection, schedule: Q04DX003 (ip), vehicle: saline with Tween-80) was 168 % of control; the T/C (dose: 10.8 mg/kg/injection, schedule: Q04DX003 (ip), vehicle: water) was 153 % of control; the T/C (dose: 15.0 mg/kg/injection, schedule: Q04DX003 (ip), vehicle: saline with Tween-80) was 186 % of control; the T/C (dose: 18.0 mg/kg/injection, schedule: Q04DX003 (ip), vehicle: water) is 162 % of control; the T/C (dose: 30.0 mg/kg/injection, schedule: Q04DX003 (ip), vehicle: water) was 180 % of control. Besides, the T/C (dose: 50.0 mg/kg/injection, schedule: Q04DX003 (ip), vehicle: water) was 171 % of control.
As for `C=C1C=CC1=O`, the T/C (dose: 0.63 mg/kg/injection, schedule: Q01DX009 (ip), vehicle: olive oil, sesame oil, peanut oil) was 100 % of control; the T/C (dose: 1.25 mg/kg/injection, schedule: Q01DX009 (ip), vehicle: olive oil, sesame oil, peanut oil) was 100 % of control and 91 % of control; the T/C (dose: 2.5 mg/kg/injection, schedule: Q01DX009 (ip), vehicle: olive oil, sesame oil, peanut oil) is 100 % of control and 93 % of control; the T/C (dose: 5.0 mg/kg/injection, schedule: Q01DX009 (ip), vehicle: olive oil, sesame oil, peanut oil) was 100 % of control and 104 % of control; the T/C (dose: 10.0 mg/kg/injection, schedule: Q01DX009 (ip), vehicle: olive oil, sesame oil, peanut oil) is 99 % of control and 103 % of control.
For `NCCN.NCCN.[Cl-].[O]=[Os+2]=[O]`, the T/C runs as follows: (dose: 60.0 mg/kg/injection, schedule: Q01DX005 (ip), vehicle: saline with Tween-80) 118 % of control; (dose: 120.0 mg/kg/injection, schedule: Q01DX005 (ip), vehicle: saline with Tween-80) 114 % of control.
As to `CN(C)c1ccc(C=NCCCN2CCN(CCCN=Cc3ccc(N(C)C)cc3)CC2)cc1`, the T/C under setting [1] is 93 % of control; the T/C under setting [2] is 99 % of control; the T/C (dose: 50.0 mg/kg/injection, schedule: Q01DX009 (ip), vehicle: Klucel (hydroxypropylcellulose) (HPC)) is 104 % of control; the T/C (dose: 100.0 mg/kg/injection, schedule: Q01DX009 (ip), vehicle: Klucel (hydroxypropylcellulose) (HPC)) is 112 % of control; the T/C (dose: 200.0 mg/kg/injection, schedule: Q01DX009 (ip), vehicle: Klucel (hydroxypropylcellulose) (HPC)) is 105 % of control.
As for `CC(=O)Oc1ccc(C2c3cc(OC(C)=O)c(OC(C)=O)cc3CC3C(=O)OCC32)cc1OC(C)=O` (stereo unspecified), the T/C is 102 % of control (dose: 50.0 mg/kg/injection, schedule: Q01DX005 (ip), vehicle: distilled water + alcohol); 96 % of control (dose: 100.0 mg/kg/injection, schedule: Q01DX005 (ip), vehicle: distilled water + alcohol); 100 % of control (dose: 200.0 mg/kg/injection, schedule: Q01DX005 (ip), vehicle: distilled water + alcohol).
As to `OC1(c2ccc(-c3ccc(-c4ccc(C5(O)C(c6ccccc6)=C(c6ccccc6)C(c6ccccc6)=C5c5ccccc5)cc4)cc3)cc2)C(c2ccccc2)=C(c2ccccc2)C(c2ccccc2)=C1c1ccccc1`, the T/C runs as follows: (dose: 100.0 mg/kg/injection, schedule: Q04DX003 (ip), vehicle: Klucel (hydroxypropylcellulose) (HPC)) 93 % of control; (dose: 200.0 mg/kg/injection, schedule: Q04DX003 (ip), vehicle: Klucel (hydroxypropylcellulose) (HPC)) 90 % of control; (dose: 400.0 mg/kg/injection, schedule: Q04DX003 (ip), vehicle: Klucel (hydroxypropylcellulose) (HPC)) 93 % of control.
With `COc1ccc(C(=O)c2ncccc2C)cc1OC`, the T/C is 95 % of control (dose: 50.0 mg/kg/injection, schedule: Q01DX009 (ip), vehicle: other); 99 % of control (dose: 100.0 mg/kg/injection, schedule: Q01DX009 (ip), vehicle: other); 95 % of control (dose: 200.0 mg/kg/injection, schedule: Q01DX009 (ip), vehicle: other).
In the case of `CN1CCN(Cc2ncc(C3CCCCC3)c(=O)[nH]2)CC1`, the T/C (dose: 25.0 mg/kg/injection, schedule: Q01DX009 (ip), vehicle: saline with Tween-80) is 100 % of control; the T/C under setting [3] was 102 % of control; the T/C under setting [4] is 97 % of control.
In the case of `COc1cc2ccc(/C=C\[N+](=O)[O-])cc2cc1OC`, the T/C (dose: 3.13 mg/kg/injection, schedule: Q01DX009 (ip), vehicle: other) was 105 % of control; the T/C (dose: 6.25 mg/kg/injection, schedule: Q01DX009 (ip), vehicle: other) is 108 % of control; the T/C (dose: 12.5 mg/kg/injection, schedule: Q01DX009 (ip), vehicle: other) is 107 % of control; the T/C (dose: 25.0 mg/kg/injection, schedule: Q01DX009 (ip), vehicle: other) was 108 % of control.
`C/C(=C\C(=N\N=C(N)N)c1ccc(Cl)cc1)c1ccc(Cl)cc1`: the T/C (dose: 6.25 mg/kg/injection, schedule: Q01DX009 (ip), vehicle: saline with Tween-80) was 118 % of control and the T/C (dose: 12.5 mg/kg/injection, schedule: Q01DX009 (ip), vehicle: saline with Tween-80) was 98 % of control.
In the case of `COc1ccc(C(C)c2cc3c(cc2OC(C)=O)OCO3)cc1` (stereo unspecified), the T/C runs as follows: (dose: 50.0 mg/kg/injection, schedule: Q01DX005 (ip), vehicle: saline with Tween-80) 100 % of control; (dose: 100.0 mg/kg/injection, schedule: Q01DX005 (ip), vehicle: saline with Tween-80) 87 % of control; (dose: 200.0 mg/kg/injection, schedule: Q01DX005 (ip), vehicle: saline with Tween-80) 93 % of control.
Take `C=CCSc1nc2ccc(N=Cc3ccc([N+](=O)[O-])cc3)cc2s1`: the T/C is, setting by setting: (dose: 6.25 mg/kg/injection, schedule: Q01DX009 (ip), vehicle: Klucel (hydroxypropylcellulose) (HPC)) 99 % of control; under setting [1], 98 % of control; under setting [2], 105 % of control.
In the case of `Cc1cc(C2(c3cc(C)c(O)c(CN(CC(=O)O)CC(=O)O)c3)OC(=O)c3ccccc32)cc(CN(CC(=O)O)CC(=O)O)c1O`, the T/C under setting [3] is 100 % of control; the T/C under setting [4] is 100 % of control; the T/C (dose: 200.0 mg/kg/injection, schedule: Q01DX009 (ip), vehicle: saline with Tween-80) is 97 % of control.
On to `CCc1nc(N)nc(N)c1-c1ccc(N2CCOCC2)c(N=[N+]=[N-])c1`, for which the T/C runs as follows: (dose: 6.25 mg/kg/injection, schedule: Q01DX005 (ip), vehicle: Klucel (hydroxypropylcellulose) (HPC)) 101 % of control; (dose: 12.5 mg/kg/injection, schedule: Q01DX005 (ip), vehicle: Klucel (hydroxypropylcellulose) (HPC)) 100 % of control; (dose: 25.0 mg/kg/injection, schedule: Q01DX005 (ip), vehicle: Klucel (hydroxypropylcellulose) (HPC)) 97 % of control.
With `N#CC(C#N)=CN1CCCCCC1`, the T/C by setting is: (dose: 6.25 mg/kg/injection, schedule: Q04DX003 (ip), vehicle: saline with Tween-80) 104 % of control; (dose: 12.5 mg/kg/injection, schedule: Q04DX003 (ip), vehicle: saline with Tween-80) 100 % of control.
Consider `NC1=C(O)C(=O)C(c2c3ccccc3cc3ccccc23)O1` (stereo unspecified), for which the T/C (dose: 60.0 mg/kg/injection, schedule: Q01DX005 (ip), vehicle: Klucel (hydroxypropylcellulose) (HPC)) was 94 % of control; the T/C (dose: 120.0 mg/kg/injection, schedule: Q01DX005 (ip), vehicle: Klucel (hydroxypropylcellulose) (HPC)) is 108 % of control; the T/C (dose: 240.0 mg/kg/injection, schedule: Q01DX005 (ip), vehicle: Klucel (hydroxypropylcellulose) (HPC)) is 86 % of control.
